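48-hour exposure; five concentrations; linearly interpolated endpoints. Here, GI50 denotes the concentration required for 50% inhibition of growth.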 Calls of active or inactive are those of the source. Rule as the data show it: active = GI50 up to about 1.1 µM and inactive = higher.
What was measured:
Assay in all cases: growth of human tumour cells (NCI), 48 h
[1] = tested on: A498
[2] = tested on: BT-549
[3] = tested on: CAKI-1
[4] = tested on: CCRF-CEM
[5] = tested on: COLO 205
[6] = tested on: DU-145
[7] = tested on: HCC 2998
[8] = tested on: HCT-116
[9] = tested on: HCT-15
[10] = tested on: HL-60
[11] = tested on: HOP-62
[12] = tested on: HOP-92
[13] = tested on: HT-29
[14] = tested on: Hs-578T
[15] = tested on: IGROV-1
[16] = tested on: K562
[17] = tested on: KM12
[18] = tested on: M14
[19] = tested on: MCF7
[20] = tested on: MDA-MB-231
[21] = tested on: MDA-MB-435
[22] = tested on: MDA-N
[23] = tested on: MOLT-4
[24] = tested on: Malme-3M
[25] = tested on: NCI-H226
[26] = tested on: NCI-H23
[27] = tested on: NCI-H460
[28] = tested on: NCI-H522
[29] = tested on: NCI/ADR-RES
[30] = tested on: OVCAR-3
[31] = tested on: OVCAR-5
[32] = tested on: OVCAR-8
[33] = tested on: PC-3
[34] = tested on: RPMI-8226
[35] = tested on: RXF 393
[36] = tested on: SF-295
[37] = tested on: SK-MEL-28
[38] = tested on: SK-MEL-2
[39] = tested on: SK-MEL-5
[40] = tested on: SK-OV-3
[41] = tested on: SN12C
[42] = tested on: SNB-19
[43] = tested on: SNB-75
[44] = tested on: SR
[45] = tested on: T47D
[46] = tested on: U-251
[47] = tested on: UACC-62
[48] = tested on: UO-31

In the case of `c1ccc(/N=C2/SC3=Nc4cccc5cccc(c45)N3/C2=N/c2ccccc2)cc1`, the GI50 [1] is reported as > 100 µM (inactive), the GI50 [2] is reported as > 100 µM (inactive) and the GI50 [3] is reported as > 100 µM (inactive). For the same compound, the GI50 [4] was 54.1 µM (inactive), the GI50 [5] was > 100 µM (inactive) and the GI50 [6] was > 100 µM (inactive). For the same compound, the GI50 [7] was > 100 µM (inactive), the GI50 [8] was > 10 µM (inactive) and the GI50 [9] was > 100 µM. For the same compound, the GI50 [10] was > 100 µM (inactive), the GI50 [11] was > 100 µM (inactive) and the GI50 [12] was > 100 µM (inactive). The GI50 [13] was > 100 µM (inactive), the GI50 [14] was > 100 µM (inactive) and the GI50 [15] was > 100 µM (inactive). For the same compound, the GI50 [16] was > 100 µM (inactive), the GI50 [17] was > 100 µM (inactive) and the GI50 [18] was > 100 µM (inactive). The GI50 [19] was > 100 µM (inactive), the GI50 [20] was > 100 µM (inactive) and the GI50 [21] was > 100 µM (inactive). For the same compound, the GI50 [22] was > 100 µM (inactive), the GI50 [23] was 79.3 µM (inactive) and the GI50 [24] was > 100 µM (inactive). For the same compound, the GI50 [25] was > 100 µM (inactive), the GI50 [26] was > 100 µM (inactive) and the GI50 [27] was > 100 µM (inactive). For the same compound, the GI50 [28] was > 100 µM (inactive), the GI50 [29] was > 100 µM (inactive) and the GI50 [30] was > 100 µM (inactive). For the same compound, the GI50 [31] was > 100 µM (inactive), the GI50 [32] was > 100 µM (inactive) and the GI50 [33] was > 100 µM (inactive). The GI50 [34] was > 100 µM (inactive), the GI50 [35] was > 100 µM (inactive) and the GI50 [36] was > 100 µM (inactive). For the same compound, the GI50 [37] was > 100 µM (inactive), the GI50 [38] was > 100 µM (inactive) and the GI50 [39] was > 100 µM (inactive). The GI50 [40] was > 100 µM (inactive), the GI50 [41] was > 100 µM (inactive) and the GI50 [42] was > 100 µM (inactive). For the same compound, the GI50 [43] was > 100 µM (inactive), the GI50 [44] was > 100 µM (inactive) and the GI50 [45] was > 100 µM (inactive). For the same compound, the GI50 [46] was > 100 µM (inactive), the GI50 [47] was > 100 µM (inactive) and the GI50 [48] was > 100 µM (inactive).

From ChEMBL document CHEMBL1201862, “PubChem BioAssay data set” (2004)
